A short description of data set [1]: ssDNA-CG Na^+ sensitivity by fluorescence. The data set is classed as physicochemical. The settings on record: 1 mM and 150 mM NaCl, 100 nM ssDNA-CG, pH 7.4 potassium phosphate buffer. The protocol: FIGS. 12A-12B illustrate the validation of CG-DNA conjugate efficiency and Na^+ sensitivity. […] Molar ratio of DNA to CG is confirmed to be ˜ 1:1 confirming the coupling efficiency. […] 1 mM and 150 mM NaCl was added to 100 nM of ssDNA-CG in pH 7.4 potassium phosphate buffer. Fluorescence maximum at 545 increases more than 5-fold.
100 nM of RatiNa was aliquoted in UB buffer (10 mM HEPES, MES and potassium acetate, 140 mM NaCl/KCl). pH adjusted by HCl or KOH) Fluorescent emission spectra was taken by Fluoromax (Horiba) with the following collection parameters: For CG, dex=522 nm, range from 530 nm to 600 nm. For ATTO647N, dex=645 nm, range from 660 nm to 700 nm.

For another data set, the target named is T1, PIKfyve (Mus musculus, UniProt Q9Z1T6).
T1 construct: endogenous in cells; host or cells: RAW 264.7 macrophages
T1 sequence (Q9Z1T6 whole entry): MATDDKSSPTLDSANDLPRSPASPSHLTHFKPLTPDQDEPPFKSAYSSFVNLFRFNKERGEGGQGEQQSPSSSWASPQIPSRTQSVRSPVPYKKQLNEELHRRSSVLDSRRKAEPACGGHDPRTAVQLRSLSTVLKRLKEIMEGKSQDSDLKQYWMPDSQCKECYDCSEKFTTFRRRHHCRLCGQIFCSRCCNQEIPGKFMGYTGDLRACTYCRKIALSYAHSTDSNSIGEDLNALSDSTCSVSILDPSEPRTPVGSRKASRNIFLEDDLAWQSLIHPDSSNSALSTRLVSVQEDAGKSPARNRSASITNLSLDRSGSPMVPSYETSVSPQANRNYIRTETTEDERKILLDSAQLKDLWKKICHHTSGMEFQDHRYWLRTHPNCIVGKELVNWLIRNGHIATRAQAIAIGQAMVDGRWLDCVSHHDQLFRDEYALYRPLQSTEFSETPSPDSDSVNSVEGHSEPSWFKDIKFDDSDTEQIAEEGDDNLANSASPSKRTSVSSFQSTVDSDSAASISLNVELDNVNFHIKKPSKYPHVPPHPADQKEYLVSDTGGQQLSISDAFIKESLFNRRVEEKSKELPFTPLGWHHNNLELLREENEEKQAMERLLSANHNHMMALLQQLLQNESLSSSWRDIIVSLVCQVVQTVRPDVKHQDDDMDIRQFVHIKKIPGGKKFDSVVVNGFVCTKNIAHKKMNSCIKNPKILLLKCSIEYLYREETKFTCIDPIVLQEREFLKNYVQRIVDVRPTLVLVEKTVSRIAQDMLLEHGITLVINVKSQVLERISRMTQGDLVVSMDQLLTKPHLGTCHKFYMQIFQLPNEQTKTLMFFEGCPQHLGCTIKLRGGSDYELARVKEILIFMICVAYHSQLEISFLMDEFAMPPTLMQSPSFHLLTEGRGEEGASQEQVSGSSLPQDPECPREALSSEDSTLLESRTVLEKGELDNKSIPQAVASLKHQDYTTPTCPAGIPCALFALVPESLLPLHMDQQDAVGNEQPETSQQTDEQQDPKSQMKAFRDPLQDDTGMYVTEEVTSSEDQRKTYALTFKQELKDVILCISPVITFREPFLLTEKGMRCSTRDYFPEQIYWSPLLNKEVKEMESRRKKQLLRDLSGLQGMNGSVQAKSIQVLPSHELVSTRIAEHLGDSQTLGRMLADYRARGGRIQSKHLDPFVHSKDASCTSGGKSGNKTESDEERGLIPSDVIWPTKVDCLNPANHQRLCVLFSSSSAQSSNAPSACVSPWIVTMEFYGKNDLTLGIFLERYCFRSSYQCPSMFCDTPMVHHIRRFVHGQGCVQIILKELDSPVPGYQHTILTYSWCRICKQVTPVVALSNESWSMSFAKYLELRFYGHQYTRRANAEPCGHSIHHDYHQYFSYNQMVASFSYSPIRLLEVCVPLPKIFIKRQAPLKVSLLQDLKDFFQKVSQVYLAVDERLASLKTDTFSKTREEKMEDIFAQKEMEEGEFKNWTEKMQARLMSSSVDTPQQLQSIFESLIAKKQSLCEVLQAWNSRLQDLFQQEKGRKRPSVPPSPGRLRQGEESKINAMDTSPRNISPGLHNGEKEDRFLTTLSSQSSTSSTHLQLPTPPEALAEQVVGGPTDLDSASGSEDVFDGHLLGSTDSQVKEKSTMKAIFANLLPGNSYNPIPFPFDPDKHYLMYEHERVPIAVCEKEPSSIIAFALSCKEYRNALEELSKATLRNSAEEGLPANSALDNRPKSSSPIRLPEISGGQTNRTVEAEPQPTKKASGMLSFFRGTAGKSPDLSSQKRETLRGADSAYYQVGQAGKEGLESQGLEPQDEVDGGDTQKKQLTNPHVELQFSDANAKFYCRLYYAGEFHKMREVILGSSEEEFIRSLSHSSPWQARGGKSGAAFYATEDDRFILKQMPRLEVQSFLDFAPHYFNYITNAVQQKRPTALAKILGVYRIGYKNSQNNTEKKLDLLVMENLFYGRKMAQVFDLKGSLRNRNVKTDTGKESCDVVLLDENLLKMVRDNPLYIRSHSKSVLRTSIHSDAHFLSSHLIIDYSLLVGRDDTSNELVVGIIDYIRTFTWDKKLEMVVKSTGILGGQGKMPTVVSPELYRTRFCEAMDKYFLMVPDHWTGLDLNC
Kind of data set: Pharmacological inhibition of macrophages, lysosomal Na^+ measured with RatiNa. The data set is classed as cell-based, murine. Particulars: RAW 264.7 macrophages, 100 nM apilimod 1 h; native lysosomes ~48 mM. The procedure:
1 μM RatiNa in prewarmed Opti-MEM was added to RAW macrophage and incubated for 2 h for maximum RatiNa uptake. Cells were then washed 3 times with PBS and incubated in prewarmed complete DMEM medium for 30 min to allow lysosome targeting of RatiNa. RatiNa in cell was then imaged in confocal microscope or widefield microscope.
RAW macrophage was treated with 100 nM apilimod for 1 h to inhibit PIKfyve. RatiNa treatment was done as stated previously with 100 nM apilimod in all medium. Cell was then imaged in confocal microscope.

On to “ssDNA-CG: 25mer ssDNA conjugated to CG dye by CuAAC coupling (CGATCAACACTGCATATATATACGACC; CG dye conjugated by CuAAC, chemistry not fully specified)”, for which, in data set [1], the “increase of fluorescence maximum at 545” value is “more than 5 fold”.

With `Cc1cccc(/C=N/Nc2cc(N3CCOCC3)nc(OCCc3ccccn3)n2)c1` [apilimod], the “lysosomal Na^+ upon PIKfyve inhibition” value at PIKfyve is given as around 70 mM.

The values are drawn from patent US20240426847A1, “COMPOSITIONS AND METHODS FOR THE DETERMINATION OF SODIUM CONCENTRATION” (The University of Chicago, priority 2023, published 2024).
